Assay results taken from patent publication US7696231B2, “Oxindole hydrazide modulators of protein tyrosine phosphatases (PTPs)” (Laboratoires Serono SA, priority 2001, dated 2010).

Experiments:
[1] = system: db/db mice; assay: In vivo assay in db/db mice, fasted animals (postprandial glycemia); conditions: db/db mice fasted 20 hours, 100 mg/kg per os, blood glucose before and 4 hrs after drug administration
Procedure: (§1) The following assay aims at determining the anti-diabetic effect of the test compounds of formula (I), in vivo in db/db mice using either fasted (to determine the postprandial glycemia right after a predetermined diet), or fed animals, to determine glycemia after a predetermined period of treatment.
(§2) 2 groups of db/db mice, 6 animals each, were formed, in the first one mice were fasted during 20 hours, the second one comprises fed (ad libitum) mice.
Group 1: The fasted animals (6) were administered (per os) a dose of 100 mg/kg of the test compound according to formula (I).
After oral administration with compounds of formula (I), they had access to commercial food (ad libitum). Blood glucose (postprandial glycemia) was determined before and 4 hrs after drug administration.

[2] = system: db/db mice; assay: In vivo assay in db/db mice, fed animals (repeated oral administration); conditions: 5×50 mg/kg per os once daily during 5 days, blood glucose before and 16 hrs after the last drug administration
Procedure: as §1, §2
Group 2: The fed animals (6) were administered (per os) a dose of 5×50 mg/kg of the test compound according to formula (I).
Mice were orally treated once daily during 5 days with compounds of formula (I). Blood glucose was determined before drug administration and 16 hrs after the last drug administration.

[3] = biological target: T1, PTP1B (Homo sapiens, UniProt P18031); assay: PTP Enzyme Assay (PTP1B); assay type: biochemical; conditions: catalytic core of human recombinant PTP, DiFMUP substrate at Km, 30 minutes at room temperature; read-out: inhibition (IC50) with regard to PTP1B
T1 construct: using the catalytic core of a human recombinant PTP, as an enzyme; made in house
T1 sequence (P18031 3-277 limits assumed): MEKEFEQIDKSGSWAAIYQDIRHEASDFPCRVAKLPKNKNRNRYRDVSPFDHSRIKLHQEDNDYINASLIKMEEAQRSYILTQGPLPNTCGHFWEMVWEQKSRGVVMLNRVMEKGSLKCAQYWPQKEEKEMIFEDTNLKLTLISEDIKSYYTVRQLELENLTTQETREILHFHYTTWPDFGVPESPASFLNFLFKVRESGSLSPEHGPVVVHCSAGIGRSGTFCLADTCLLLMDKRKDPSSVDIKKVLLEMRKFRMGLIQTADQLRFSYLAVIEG
Description: (§3) The PTP Enzyme Assay aims at determining the extent of inhibition of the examined PTP (e.g. PTP1B, TC-PTP, PTP-β, DEP-1, LAR, SHP-1, SHP-2, GLEPP-1, PTP-κ, PTP-μ, VHR, hVH5) in the presence of a test compound. The inhibition is illustrated by IC50 values which denote the concentration necessary to achieve an inhibition of 50% of the given PTP.
(§4) The cloning and expression of the catalytic domain of PTPs (e.g. PTP1B, TC-PTP, PTP-β, DEP-1, LAR, SHP-1, SHP-2, GLEPP-1, PTP-κ, PTP-μ, VHR, hVH5) maybe performed as described in J. Biol. Chem. 2000, 275(13), pp 9792-9796.
(§5) Assays were performed in a 96 well plate format, using the catalytic core of a human recombinant PTP, as an enzyme and 6,8-DiFluoro-4-MethylUmbelliferyl Phosphate (DiFMUP, Molecular Probes, D-6567) as a substrate at the Km value which was predetermined for each enzyme. Compounds to be tested were dissolved in 100% DMSO at a concentration of 2 mM. […] The reaction ran for 30 minutes at room temperature before reading the fluorescence intensity on a Perkin-Elmer Victor 2 spectrofluorimeter (excitation at 355 nm, emission at 460 nm, for 0.1 s). The percentage of inhibition relative to the fluorescence observed in the presence of solvent (5% DMSO) alone was determined. The IC50 values for inhibition were determined in triplicates on at least 3 separate occasions.

[4] = biological target: T2, GLEPP-1 (Homo sapiens, UniProt Q16827); assay: PTP Enzyme Assay (GLEPP-1); assay type: biochemical; conditions: catalytic core of human recombinant PTP, DiFMUP substrate at Km, 30 minutes at room temperature; read-out: inhibition (IC50) with regard to GLEPP-1
T2 construct: using the catalytic core of a human recombinant PTP, as an enzyme; made in house
T2 sequence (Q16827 938-1195 limits assumed): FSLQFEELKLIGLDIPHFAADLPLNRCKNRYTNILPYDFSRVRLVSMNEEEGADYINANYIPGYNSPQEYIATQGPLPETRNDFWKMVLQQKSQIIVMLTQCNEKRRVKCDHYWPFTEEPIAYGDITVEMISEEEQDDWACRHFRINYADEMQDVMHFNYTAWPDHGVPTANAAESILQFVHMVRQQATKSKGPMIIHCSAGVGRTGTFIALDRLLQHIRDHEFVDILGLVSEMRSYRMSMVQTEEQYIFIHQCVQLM
Description: as §3, §4, §5

SMILES | reduction of blood glucose level induced by food intake (postprandial glycemia) [1] | reduction of the blood glucose level [2] | IC50 [3] | IC50 [4]
O=C1Nc2ccc(I)cc2C1=NNC(=O)c1ccc(NC(=O)c2ccccc2)cc1 [Example 50, N-(4-{[2-(5-Iodo-2-oxo-1,2-dihydro-3H-indol-3-ylidene)hydrazino]-carbonyl}phenyl)benzamide] | 30% |  |  | 
COC(=O)c1ccc(OCC(=O)NN=C2C(=O)Nc3ccc(I)cc32)cc1 [Example 23, Methyl 4-{2-[2-(5-iodo-2-oxo-1,2-dihydro-3H-indol-3-ylidene)hydrazino]-2-oxoethoxy}benzoate] |  | 30% |  | 
O=C(CCc1ccccc1)Nc1ccc(C(=O)NN=C2C(=O)Nc3ccc(I)cc32)cc1 [Example 1, N-(4-{[2-(5-Iodo-2-oxo-1,2-dihydro-3H-indol-3-ylidene)hydrazino]carbonyl}phenyl)-3-phenylpropanamide] | 30% | 22% | 340 nM | ~496 nM
O=C(CCc1cccc(O)c1)Nc1ccc(C(=O)NN=C2C(=O)Nc3ccc(I)cc32)cc1 [Example 70, 3-(3-Hydroxyphenyl)-N-(4-{[2-(5-iodo-2-oxo-1,2-dihydro-3H-indol-3-ylidene)hydrazino]carbonyl}phenyl)propanamide] |  |  | 770 nM | 
O=C1Nc2ccc(I)cc2C1=NNC(=O)c1cccc(Oc2ccccc2)c1 [Example 26, N′-(5-Iodo-2-oxo-1,2-dihydro-3H-indol-3-ylidene)-3-phenoxybenzohydrazide] |  | 17% |  | 
O=C(COc1ccc([N+](=O)[O-])cc1)NN=C1C(=O)Nc2ccc(I)cc21 [Example 18, N′-(5-Iodo-2-oxo-1,2 dihydro-3H-indol-3-ylidene)-2-(4-nitrophenoxy)acetohydrazide] | 34% |  |  | 
